Publication PMC6959985 (Analytical chemistry, 2019)
Where no end group is shown, it is not given here.

Legend:
KLHDC2 [1] = molecular target: T1, KLHDC2 (Homo sapiens, UniProt Q9Y2U9)
T1 sequence (Q9Y2U9 1-406): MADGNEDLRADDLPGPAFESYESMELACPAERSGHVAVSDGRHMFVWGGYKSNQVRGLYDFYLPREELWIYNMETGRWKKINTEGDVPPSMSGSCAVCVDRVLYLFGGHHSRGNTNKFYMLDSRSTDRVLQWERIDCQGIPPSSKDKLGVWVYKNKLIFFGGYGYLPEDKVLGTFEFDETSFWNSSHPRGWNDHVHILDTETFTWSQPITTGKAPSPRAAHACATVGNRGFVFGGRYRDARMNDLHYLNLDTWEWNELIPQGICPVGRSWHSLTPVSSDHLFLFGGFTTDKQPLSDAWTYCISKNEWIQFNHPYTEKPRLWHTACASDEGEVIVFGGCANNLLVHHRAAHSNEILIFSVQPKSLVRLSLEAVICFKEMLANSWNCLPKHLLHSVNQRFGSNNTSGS

KLHDC2 [2] = molecular target: T1, KLHDC2; conditions: recently characterized selenoprotein fragment, comparison value; ref [19]; cited from earlier work
KLHDC2 [3] = molecular target: T1, KLHDC2; test: Luminescence-based competition assay; conditions: discussion of binding of both peptides; HLRGSPPPMAGG characterized in ref [19]
[4] = molecular target: T2, KLHDC2 (as used in the AlphaScreen competition assay) (human, UniProt Q9Y2U9 1-406); test: AlphaScreen or HTRF
T2 sequence (looked up): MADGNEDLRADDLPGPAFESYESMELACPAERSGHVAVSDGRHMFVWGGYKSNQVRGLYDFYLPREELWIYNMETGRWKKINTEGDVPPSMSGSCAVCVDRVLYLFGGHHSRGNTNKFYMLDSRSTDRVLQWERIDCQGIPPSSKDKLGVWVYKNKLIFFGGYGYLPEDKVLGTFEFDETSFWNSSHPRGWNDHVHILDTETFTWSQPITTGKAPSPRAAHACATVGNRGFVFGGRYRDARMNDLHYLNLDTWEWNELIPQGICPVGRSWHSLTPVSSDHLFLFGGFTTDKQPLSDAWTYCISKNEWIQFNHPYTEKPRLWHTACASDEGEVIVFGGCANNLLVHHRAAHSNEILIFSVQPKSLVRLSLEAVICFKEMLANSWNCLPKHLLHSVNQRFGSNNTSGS

ASDEGEVIVFGG [ASDEGEVIVFGG]
Identification as interacting peptide by native top-down MS (KLHDC2 [1]): identified using native top-down MS

EKGGGSGGG
Identification as interacting peptide by native top-down MS (KLHDC2 [1]): identified using native top-down MS

GGGSGGG
Identification as interacting peptide by native top-down MS (KLHDC2 [1]): identified using native top-down MS

HLRGSPPPMAGG
IC50 (KLHDC2 [2]): 3.4 nM | Binding to KLHDC2 (KLHDC2 [3]): extremely tight binding

ASDEGEVIVFGG [synthesized peptide F (ASDEGEVIVFGG)]
IC50 [4]: 5.3 nM
